Laboratory results reported in US20080300299A1, “Application of Eriocalyxin B in the Manufacture of Medicaments For Treating Leukemia” (Rui Jin Hospital Affiliated to Shanghai Second Medical …, priority 2005, published 2008).
pIC50: −log10 of the molar value. Where “and” joins values, the source holds several entries; their conditions need not be identical. Equal entries are not always repeated.

Key:
[1] = tested on: NF-κB; assay: Gel electrophoresis shift assay (EMSA) of NF-κB DNA binding; format: cell-based, human; settings: EriB added one hour before TNF-α
Protocol: (XI) Gel electrophoresis shift assay: nucleoprotein extracts of Kasumi-1 cells were quantitatively determined by using Coomassie plus reagent (Pierce). Nucleoprotein (10 μg) and ^32P marked double-stranded NF-κB (5′-[…]-3′) were sequentially incubated, and then […] using 4% of non-denaturing PAGE gel; the marked bands were detected by using autoradiography.

[2] = tested on: AP-1; assay: AP-1 luciferase report assay in Kasumi-1 cells; format: cell-based, human; settings: 0.5 μM EriB for 4 hours
Protocol: (§1) (X) Luciferase report assay: Kasumi-1 cells were resuspended in cultured medium, added the gene vector [10 μg, NF-κB-mediated luciferase reporter plasmid or pAP1-luc (Clontech), and 2 μg of β-galactosidase enzyme expression plasmid for correcting cell transfection efficiency of the CMV-mediated. Cell transfection conditions were: 1000V, 25 μF, and the instrument came from the Bio-Rad Laboratories, Inc. Transfections after 36 hours, the cells were treated with EriB and/or TNFα, and then the cells were lysed. Luciferase activity was measured by lumat LB 9507 tube luminometer (EG&G Berthold). Cell lysates were mixed with 2×β-half-galactosidase reaction reagents, after incubated for one hour at 37° C., the termination of reaction by adding 1 M Na2CO3. The β-galactosidase enzyme absorbance values were measured at 420 nm by spectrophotometer.

[3] = tested on: Bcl-2; assay: Western blot and RT-PCR of Bcl-2 in Kasumi-1 cells; format: cell-based, human; settings: EriB 24 and 48 hours
Protocol: (§2) (VII) Western Blot analysis: lysing 5×10^6 cells with 200 μl Laemmli lysis buffer (0.5M Tris-HCl, pH 6.8, 2 mM EDTA, 10% glycerol, 2% SDS and 5% β-mercaptoethanol). Protein lysate (20 μg) was used on 10% polyacrylamide gel electrophoresis, and then transferred to nitrocellulose membranes. Nitrocellulose membranes were blocked with TBS/0.05% Tween 20 5% skim (nonfat) milk, and afterwards, incubated with primary antibody for two hours at room temperature, and incubated with horseradish peroxidase labeled IgG for one hour. The Immunocomplexes were detected with chemiluminescence horseradish peroxidase detection kit. The signal intensities of the respective bands were analyzed with Quantity One version 4.1.1 software.
(§3) (IX) Semi-quantitative reverse transcription-PCR (RT-PCR): the total RNA was extracted using Trizol (Invitrogen). Random hexamers and Superscript II (Invitrogen) ART were used for reverse transcribed into cDNA. The present invention utilized the following primers: […]

[4] = tested on: HL60 cells; assay: MTT cell growth inhibition; format: cell-based, human; settings: 72 hours
Protocol: (§4) (III) MTT experiment: cells were treated with EriB at concentrations of 0.1, 0.25, 0.5, 1, 2, 4, 6, 8 and 10 μM in a 96-hole plate. After 72 hours, 0.1 mg MTT was added to each hole, incubated at 37° C. for four hours later, absorbance values were measured at 570 nm by spectrophotometer.

[5] = tested on: Kasumi-1 cells; assay: Annexin V-FITC/PI apoptosis flow cytometry; format: cell-based, human; settings: 0.5 μM EriB
Protocol: (§5) (IV) Flow cytometric for annexin-V, cell cycle, mitochondrial transmembrane potential and reactive oxygen species (ROS) generation: Cell apoptosis was analyzed using an ApoAlert Annexin V-FITC Apoptosis kit (BD). In the process of analyzing the cell cycle, the cells were fixed overnight in methanol at −20° C., followed by treatment of Tris-HCl buffer (pH 7.4) comprising 1% RNase, 50 μg/ml PI staining. In the detection of mitochondrial transmembrane potential, the cells were washed with PBS, incubated at 37° C. and with […] Rh123 for 30 minutes, and then staining with 50 μg/ml PI. DCFH-DA was used to detect ROS levels, thus the cells were washed with PBS, and incubated at 37° C. and with […] DCFH-DA for 30 minutes. Fluorescence intensity was measured by flow cytometry.

[6] = tested on: NF-κB (P65); assay: Immunofluorescence of P65 nuclear translocation in Kasumi-1 cells; format: cell-based, human; settings: pretreatment with EriB for one hour, 100 ng/ml TNF-α four hours
Protocol: (VI) Immunofluorescence: the cells were fixed in methanol for five minutes at −20° C., after being washed with PBS, treated by 0.5% Triton-X-permeability, blocked with 1% BSA, and incubated with anti-P65 antibody at room temperature for one hour; after being washed again with PBS and incubated with the fluorescent-label IgG at room temperature for 30 minutes. The cells were incubated with Hochest 33258 for five minutes later, and observations were proceeded under the fluorescent microscope.

[7] = tested on: Jurkat cells; assay: MTT cell growth inhibition; format: cell-based, human; settings: 72 hours
Source text: (§6) (II) Cell culture, cell survival and cell morphology: the present invention utilized the following human cell lines: AML leukemia with t(8;21) chromosomal translocation Kasumi-1 cell lines, which is also known as acute myeloid leukemia comprising AML1-ETO fusion gene; acute promyelocytic leukemia NB4, NB4/R1 and NB4/R2 cell lines, and acute myeloid leukemia U937 cell lines; Burkitt's lymphoma (Raji and Daudi) cell lines; T-cell acute lymphoblastic leukemia (Jurkat) cell lines. The present invention studied by collecting primary leukemia cells from five AML patients with t(8;21). The diagnoses of patients were established on the bases of morphological examination, cytogenetics study detection of t(8;21) chromosomal translocation, and RT-PCR detection of AML1-ETO fusion protein. Leukemia cells were prepared in the following conditions: separated with Lymphocyte Separation Medium, further isolated and cultured in RPMI-1640 medium (Gibco/BRL), in addition, added 10% FBS (PAA) in 5% CO2-95% air and saturated humidity, and at 37° C. In each experiment, cell inoculation density is 2×10^5/ml. The survival rate of cells was accessed using trypan blue dye-exclusion experiments. Cell observations were done by using the Wright's staining method.
as §4

[8] = tested on: NB4/R1 cells; assay: MTT cell growth inhibition; format: cell-based, human; settings: 72 hours
Source text: as §6, §4

[9] = tested on: NB4 cells; assay: MTT cell growth inhibition; format: cell-based, human; settings: 72 hours
Source text: as §6, §4

[10] = tested on: Raji cells; assay: MTT cell growth inhibition; format: cell-based, human; settings: 72 hours
Source text: as §6, §4

[11] = tested on: NB4/R2 cells; assay: MTT cell growth inhibition; format: cell-based, human; settings: 72 hours
Source text: as §6, §4

[12] = tested on: U937 cells; assay: MTT cell growth inhibition; format: cell-based, human; settings: 72 hours
Source text: as §6, §4

[13] = tested on: Daudi cells; assay: MTT cell growth inhibition; format: cell-based, human; settings: 72 hours
Source text: as §6, §4

[14] = tested on: Bax; assay: Western blot and RT-PCR of Bax in Kasumi-1 cells; format: cell-based, human; settings: EriB 24 and 48 hours
Protocol: as §2, §3

[15] = tested on: Kasumi-1 cells; assay: Cell survival (trypan blue dye-exclusion); format: cell-based, human; settings: 48 hours
Source text: as §6

[16] = tested on: Kasumi-1 cells; assay: ROS level flow cytometry; format: cell-based, human
Protocol: as §5

[17] = tested on: caspase-3; assay: Western blot of caspase-3 activation and PARP; format: cell-based, human; settings: EriB; Kasumi-1, NB4 and NB4/R2 cells
[18] = tested on: ERK1/2; assay: Western blot of phosphorylated ERK1/2 in Kasumi-1 cells; format: cell-based, human; settings: EriB 12 and 24 hours
Protocol: as §2

[19] = tested on: human malignant hematopoietic cell; assay: MTT cell growth inhibition, whole panel; format: cell-based; settings: all cell lines tested
Source text: as §6, with “The survival rate of cells was accessed using trypan blue dye-exclusion experiments. Cell observations were done by using the Wright's staining method.” left out
as §4

[20] = tested on: Kasumi-1 cells; assay: Differentiation associated antigen expression; format: cell-based, human; settings: 0.1 and 0.25 μM EriB for seven days
[21] = tested on: Kasumi-1 cells; assay: Kasumi-1 xenograft tumor model in nude mice; format: in vivo; settings: EriB 2.5 mg/kg intraperitoneal, day 10 to day 19; P<0.05
Protocol: Another xenograft tumor model was established through subcutaneous injection in nude mice of 3×10^7 Kasumi-1 cells (day 0). The incubation period of tumor formation at the site of injection was about 8-12 days. Beginning from day 10, the mice were treated with EriB (2.5 mg/kg) by intraperitoneal injection only until day 19.

[22] = tested on: Kasumi-1 cells; assay: Cell cycle analysis (nuclear DNA content, PI); format: cell-based, human; settings: 0.25 μM EriB for 6, 12, 24 and 48 hours
Protocol: as §5

[23] = tested on: NF-κB; assay: NF-κB luciferase report assay in Kasumi-1 cells; format: cell-based, human; settings: pre-treatment with EriB for one hour, then TNF-α four hours
Protocol: as §1

[24] = tested on: primary leukemia cells from patients with t(8;21); assay: Growth inhibition of primary leukemia cells (trypan blue exclusion); format: cell-based, human; settings: 0.1 and 0.25 μM EriB, all five patients
Source text: as §6

[25] = tested on: MigA/Etr cells expressing C-terminal truncated AML1-ETO; assay: C57 murine model of t(8;21) leukemia; format: in vivo, mice; settings: for median survival time: control 25 days, P<0.001
Protocol: (XII) Leukemia murine model: female C57 mice and nude mice (5-6 weeks) were bred in special pathogen-free environment. C57 mice received 400 cGy from a high-energy linear accelerator at the dose rate of 100 cGy per minute. After 24 hours, the C57 mice were injected with 3×10^6 Mig/Etr cells expressing carbon-terminal truncated AML1-ETO of 0.2 ml PBS via tail vein intravenous injection. Treatments (12 mice in each group) were started five days after injection of leukemia cells. The control group and the EriB treated group, all respectively receive EriB (1.25, or 2.5 mg/kg, intraperitoneal injection for two weeks) and diluents (1% Pluronic F68).
EriB efficacy in the treatment of murine models. C57 mice were irradiated by lethal dose (LD)50 and injected via tail vein intravenously with 3×10^6 MigA/Etr cells expressing of C-terminal truncated AML1-ETO (day 0). Beginning on day 5, intraperitoneal injection of EriB ([…]) for two weeks. The overall survival rate was measured and calculated started from day 0 to the date of death. All the mice eventually develop symptoms of anemia and difficulty breathing, and also the occurrence of a large number of primitive blood cells in the peripheral blood.

[26] = tested on: AML1-ETO fusion protein; assay: Western blot of AML1-ETO (anti-ETO antibody) in Kasumi-1 cells; format: cell-based, human; settings: EriB 24 and 48 hours
Protocol: as §2

[27] = tested on: Bcl-XL; assay: Western blot and RT-PCR of Bcl-XL in Kasumi-1 cells; format: cell-based, human; settings: EriB 24 and 48 hours
Protocol: as §2, §3

[28] = tested on: Kasumi-1 cells; assay: Mitochondrial transmembrane potential (Rh123 flow cytometry); format: cell-based, human
Protocol: as §5

`C=C1C(=O)[C@]23C[C@H]1CC[C@H]2[C@@]12CO[C@]3(O)[C@@H](O)[C@@H]1C(C)(C)C=CC2=O` [EriB, Eriocalyxin B] was tested, and the “NF-κB activation (DNA binding, EMSA)” value [1] was “can block NF-κB activation”, the “AP-1 luciferase activity increase” value [2] was “about three” and the “Bcl-2 protein and mRNA levels” value [3] was “have decreased”. For the same compound, the pIC50 [4] was 6.00, the “annexin V-positive cells proportion” value ([5]; 48 hours) was 88.6% and the “TNF-α-induced P65 translocation into nucleus” value [6] was “significantly prevent”. For the same compound, the pIC50 [7] was less than 5.82, the pIC50 [8] was > 6.00 and 6.00 and the pIC50 [9] was > 6.00 and 6.30. For the same compound, the pIC50 [10] was less than 5.82, the pIC50 [11] was > 6.00 and 6.30 and the pIC50 [12] was 6.00. For the same compound, the pIC50 [13] was less than 5.82, the Bax expression [14] was “have not changed significantly” and the cell death ([15]; 0.25 μM EriB) was 42.7±6.5%. For the same compound, the cell death ([15]; 0.75 μM EriB) was 90.5±4.3%, the “cell level of ROS compared with untreated cells” value ([16]; 0.5 μM EriB alone for 2 hours) was “about two” and the caspase-3 activation [17] was “activated”. For the same compound, the ERK1/2 phosphorylation level [18] was “rapidly decreased”, the “concentration that inhibits the growth of the cells” value [19] was 0.2 to 2 µM and the “induction of differentiation (CD11b, CD13, CD14, CD33, CD34, CD64)” value [20] was “did not induce differentiation”. The “tumor size versus control group” value [21] was “significantly reduce tumor size”, the “proportion of sub-G1 cells” value [22] was “higher proportion of sub-G1” and the “base luciferase activity and TNF-α-induced NF-κB activity” value [23] was “have been blocked”. The cell inhibition [24] was “more than 60%”, the median survival time ([25]; EriB 1.25 mg/kg intraperitoneal for two weeks) was 28 days and the median survival time ([25]; EriB 2.5 mg/kg intraperitoneal for two weeks) was 32 days. For the same compound, the “spleen size versus untreated mice” value ([25]; EriB intraperitoneal, 20 days) was “obviously smaller”, the “AML1-ETO fusion protein level” value [26] was “AML1-ETO degradation” and the “Bcl-XL protein and mRNA levels” value [27] was “have decreased”. The mitochondrial transmembrane potential ([28]; EriB 24 and 48 hours, time and dose dependent) was “decreased significantly”.

`COC(=O)CC[C@H](NC(=O)[C@H](CC(=O)OC)NC(=O)OCc1ccccc1)C(=O)N[C@H](C(=O)N[C@@H](CC(=O)OC)C(=O)CF)C(C)C` [Z-DEVD-fmk, reference compound] was tested, and the “effect on rate of EriB-induced apoptosis (annexin V positive cell proportion)” value ([5]; 40 μM Z-DEVD-fmk pre-treatment one hour) was “only partially reduced”.

For `O[C@H](CS)[C@H](O)CS` (racemic) [DTT, dithiothreitol, reference compound], the ROS level ([16]; 0.2 mM DTT and EriB jointly incubated) was “has not changed” and the “effect on EriB-induced apoptosis (Rh123)” value ([28]; 0.2 mM DTT with 0.5 μM EriB) was “completely inhibit”.
